Experimental data published in patent US9289381B2, “Stabilization and storage of biological pharmaceutical compositions” (The University of North Carolina at Charlotte, priority 2009, dated 2016).
pEC50: −log10 of the molar value. “And” between values parts separate entries of the source, which are not always exact repeats. Equal values may be shown once. Read-outs that look alike come from different tables or passages of the source.

Experiments:
[1] = test system: J774 murine macrophage cell line; assay: cells; conditions: Mus musculus, J774, 48 h
[2] = Osmolality by vapor pressure osmometer, osmotic coefficient; type: physicochemical
[3] = 350 mg/ml vs 1 mg/ml, aqueous solvent; cited from earlier work
[4] = test system: J774 murine macrophage cell line
mouse splenocytes = conditions: 24 h; for concentration with cytotoxicity (viability diminishes): splenocytes, medium without added buffer
[5] = Yoshizawa-Fujita 2007; cited from earlier work
[6] = cited from earlier work
[7] = 100 mM solutions in deionized water
[8] = read-out: Log EC50, μM (Dose Response Model) (converted)

With `OC[C@H]1O[C@H](O[C@H]2O[C@H](CO)[C@@H](O)[C@H](O)[C@H]2O)[C@H](O)[C@@H](O)[C@@H]1O` [Trehalose, reference compound] the pEC50 [1] was < 1.00 and the “Osmotic Coef., φ in H2O” value [2, 7] was 1.01.

For fibrinogen, the “increase of transition temperature at the higher concentration” value [3] is listed as 3 °C.

Molecule `C[N+](C)(C)CCO.[Cl-]` [Choline chloride, reference compound] has a pEC50 [1] of 1.47, an EC50 [1, 8] of 33900 µM and a pEC50 [4] of 1.47. The “Osmotic Coef., φ in H2O” value [2] was 0.86.

In the case of hemoglobin, the “increase of transition temperature at the higher concentration” value [3] is listed as 8 °C.

For Choline dibutyl phosphate [CDBP], the pEC50 [4] was 2.04, the “Log EC50, μM (Dose Response Model)” value [4] was 3.96 (3) μM and the “anion effect ratio (AR)” value [4] was 3.7. The “Osmotic Coef., φ in H2O” value [2] was 0.90 and the “osmotic coefficient (φ)” value [2] was 0.9.

With `CCCCC(CC)COP(=O)(O)OCC(CC)CCCC.CN(C)CCO` (stereo not shown) [CBEH, Choline bis(2,ethyl hexyl) phosphate] the “anion effect ratio (AR)” value [4] was 113, the “shape of dose response” value [4] was “hormetic response” and the “Log EC50, μM (Dose Response Model)” value ([4]; J774, 48 h, value is the logarithm of EC50, error of last digit in parentheses, equation 1) was 2.47 (3) μM. For the same molecule, the “Log EC50, μM (Logistic Model)” value ([4]; J774, 48 h, value is the logarithm of EC50, modified (hormesis) model, equation 2, error of last digit in parentheses) was 2.43 (3) μM, the pEC50 ([4]; J774, 48 h exposure) was 3.52 and the “osmotic coefficient (φ)” value ([2]; 100 mM in water, 1 indicates 100% dissociation) was 0.3. For the same molecule, the “Osmotic Coef., φ in H2O” value [2, 7] was 0.31.

With `C[N+](C)(C)CCO.O=P([O-])(O)O` [CDHP, choline dihydrogen phosphate] the “concentration range with no cytotoxic activity detected” value (mouse splenocytes; buffered medium ([…] (w/v) sodium bicarbonate)) was 0 to 8e+07 nM, the “concentration with cytotoxicity (viability diminishes)” value (mouse splenocytes) was > 35000 µM and > 40000 µM and the “concentration with cytotoxicity (viability diminishes)” value (mouse splenocytes; listed as Choline-DHP) was > 30000 µM. For the same molecule, the “concentration range with no cytotoxic activity detected” value (B16-F10 melanoma cells; buffered medium ([…] (w/v) sodium bicarbonate), 24 h) was 0 to 8e+07 nM, the concentration not cytotoxic (B16-F10 melanoma cells; final culture medium concentration) was 1000 to 30000 µM and the cytotoxic activity (B16-F10 melanoma cells; up to 80 mM C-DHP, DMEM F12 complete medium, 24 h, not buffered) was “doesn't demonstrate any significant cytotoxic activity”. The “thermal stability by thermal gravimetric analysis” value [5] was “up to 200 °C”, the “cytotoxic effect toward HT-2 lymphocytes” value (HT-2 cells) was “no immediate cytotoxic effect” and the “concentration range not cytotoxic” value (HT-2 cells; mouse) was 0 to 3e+07 nM. The pEC50 [1] was 1.70, the EC50 [1, 8] was 20400 µM and the EC50 ([1]; read-out: Log EC50, μM (Logistic Model) (converted)) was 19100 µM. The “shape of dose response” value [4] was “hormetic response” and the “anion effect ratio (AR)” value ([4]; mouse, pH 7.53) was 1.7.

In the case of “cyt C: cytochrome c, protein of earlier literature studies in 80% w/w CDHP”, the “thermal transition midpoint temperature before shift” value ([6]; Fujita 2006, 2007) is given as 80 C.°, the concentration dissolved ([6]; in 80% w/w CDHP (Fujita 2005, 2006)) is given as 37000 µg/mL and the “thermal transition midpoint temperature after shift” value ([6]; stabilized in CDHP, Fujita 2006, 2007) is given as 120 C.°.

In the case of `[Cl-].[Na+]` [Sodium chloride, reference compound], the pEC50 [4] was 1.20, the “Log EC50, μM (Dose Response Model)” value [4] was 4.8 (1) μM and the “Osmotic Coef., φ in H2O” value [2] was 0.91.
